The record followed here is article PMC6257670 (2010).

In this test the test system is biotinylated m012 (RNA, aptamer) GGCGAAUUCUUCCGUUAUUGGAGCCAAGUCGCC
Kind of test: competitive ELAA, absorbance 405 nm. Conditions: 150 mM NaCl, 5 mM MgCl2; 50 mM HEPES pH 7.4 (wash), 25 °C; biotinylated SPC (6 µM) displaced; immobilised aptamer.

On to `CCCCCCCCCCCCC/C=C/[C@@H](O)[C@@H](N)COP(=O)([O-])OCC[N+](C)(C)C`, for which the binding result is given as “yes”.
